Measured values: US5158970A, “Proline derivatives” (Kabushiki Kaisha Yakult Honsha, priority 1989, dated 1992)
Residues, ends and D or L forms follow the SMILES beside them. *: point of attachment. Cbz = O=C(OCc1ccccc1)*

How the values were obtained:
[1] = test system: scopolamine-induced amnesia; test: step-down passive avoidance test, anti-amnestic activity on scopolamine-induced amnesia; assay type: in vivo, male rats of Wister strain; details: scopolamine 0.5 mg/kg i.p., retention 24 hours after acquisition, relative to scopolamine-treated group
Source text: A step-down passive avoidance test on rats was used as the method of assay for anti-amnestic activity to estimate the preventive effect of prolylendopeptidase inhibitors on scopolamine-induced amnesia. This method of assay involved application of electric shocks to animals upon their stepping down on a grid floor to see whether they have learned that such shocks can be avoided by staying on a platform. A passive avoidance test chamber used in this experiment was comprised of an electrifiable grid floor (20 cm in length and 22 cm in width) and a platform (20 cm in length, 15 cm in width and 5 cm in height) placed at the right back corner thereof.
5-Weeks-old male rats of Wister strain weighing 100-150 g (purchased from Japan Clea Co., Ltd.) were used in the test.
Each test compound used in the doses indicated in Tables 2-3 was dissolved or suspended in 4% gum arabic-containing distilled water (1 ml) and administered p.o. one hour before the commencement of acquisition trial. In addition, scopolamine hydrobromide dissolved in saline (0.5 ml) was intraperitoneally administered in a dose of 0.5 mg/kg 30 minutes before the acquisition trial to prepare experimental animal models of amnesia.
In the acquisition trial, the rat was placed on the platform in the test chamber and, when the animal stepped down on the grid floor, the electric current of 5.0 mA was immediately sent to the grid floor continuously until the animal went up on the platform If the rat having gone up on the platform stayed there for more than 30 seconds, the animal was regarded to have learned the situation and taken out of the test chamber. A total time of measurement in the acquisition trial was limited to 300 seconds as maximum, and the time elapsing until the rat learned the situation was measured. In order to avoid any significant difference in the rats, those which took more than 300 seconds for the learning were excluded from the experiment.
The retention trial was carried out 24 hours after the acquisition trial. In this trial, the rat was placed again on the platform in the test chamber, the time elapsing until the animal stepped down onto the grid floor (the step-down latency) was measured.
In each of these tables they are indicated as relative step-down latency, shown by each test compound-treated group in the retention trial, to step-down latency for scopolamine-treated group (i.e. test compound-treated group's step-down latency/scopolamine-treated group's step-down latency).

[2] = target: prolylendopeptidase (Elizabethkingia meningoseptica, UniProt P27028); test: biochemical; assay type: biochemical; details: substrate 2.5 mM Z-glycyl-proline-β-naphthylamide; pH 7.0; 35° C. for 10 minutes; read-out: inhibition constant (Ki)
Sequence of prolylendopeptidase (P27028 21-705): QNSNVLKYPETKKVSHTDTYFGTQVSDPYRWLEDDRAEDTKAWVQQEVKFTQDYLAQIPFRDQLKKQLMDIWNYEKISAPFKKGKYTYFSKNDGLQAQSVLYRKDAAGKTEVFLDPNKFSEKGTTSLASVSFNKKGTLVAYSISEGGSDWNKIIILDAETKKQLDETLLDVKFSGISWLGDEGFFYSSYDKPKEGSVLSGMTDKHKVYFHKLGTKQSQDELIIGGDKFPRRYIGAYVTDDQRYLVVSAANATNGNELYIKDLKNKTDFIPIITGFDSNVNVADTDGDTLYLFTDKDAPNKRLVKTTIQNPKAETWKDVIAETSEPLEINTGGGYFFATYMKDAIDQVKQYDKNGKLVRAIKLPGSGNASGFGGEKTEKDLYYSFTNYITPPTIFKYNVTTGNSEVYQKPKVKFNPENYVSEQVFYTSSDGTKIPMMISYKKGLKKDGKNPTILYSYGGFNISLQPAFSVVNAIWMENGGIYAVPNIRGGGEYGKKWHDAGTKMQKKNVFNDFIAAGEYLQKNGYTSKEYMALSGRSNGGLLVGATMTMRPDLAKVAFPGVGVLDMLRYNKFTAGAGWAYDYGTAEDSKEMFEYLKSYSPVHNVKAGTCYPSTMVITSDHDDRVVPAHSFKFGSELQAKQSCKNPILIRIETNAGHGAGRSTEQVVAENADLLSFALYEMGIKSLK
Description: The compounds of the invention obtained in the foregoing Examples were assayed for their prolylendopeptidase inhibition activity. This assay for prolylendopeptidase inhibition was carried out in accordance with the method of Yoshimoto and Tsuru (Yoshimoto, T. and Tsuru, D., Agr. Biol. Chem. Vol. 42, 2417, 1978). The corresponding number of test tubes to the number of the compounds to be tested were prepared and 2.5 mM Z-glycyl-proline-β-naphthylamide (0.25 ml), 0.1 M phosphate buffer (pH 7.0, 0.99 ml) and a solution of one of the peptides of the invention (0.1 ml) were placed in each test tube and warmed at 37° C. for 3 minutes. 0.1 ml of solution of propylendopeptidase (0.2 unit/ml) was added to each test tube. After reaction at 35° C. for 10 minutes, 1 M acetate buffer containing Triton X-100 (pH 4.0) was added to a final concentration of 10% and after the mixture was left to stand at room temperature for 15 minutes the absorbance (a) at 410 nm was measured.
The above-mentioned procedure was followed in the same manner but using buffers only in place of the solution of each compound of the invention, and the absorbance (b) was measured.

[3] = prior art; cited from earlier work
[4] = test system: proline endopeptidase; details: prior art; cited from earlier work
[5] = Table 2, 5 mg/kg p.o., **p < 0.01 (Mann-Whitney)

Ki [2] [µM]	SMILES	Relative step-down latency in retention trial (mean ± S.E.) ([1]; Table 2, 1 mg/kg p.o.)	Relative step-down latency in retention trial (mean ± S.E.) [1, 5]	Relative step-down latency in retention trial (mean ± S.E.) ([1]; Table 2, 25 mg/kg p.o.)	Relative step-down latency in retention trial (mean ± S.E.) ([1]; Table 2, 50 mg/kg p.o.)	Relative step-down latency in retention trial (mean ± S.E.) ([1]; Table 2, 100 mg/kg p.o.)	other results
370	CCOC(OCC)[C@@H]1CCCN1C(=O)[C@@H]1CCCN1C(=O)CCC(=O)O [Example 12, N-succinyl-L-prolyl-L-prolinal diethyl acetal]	–	–	–	–	–	–
2.2	CCOC(OCC)[C@@H]1CCCN1C(=O)[C@@H]1CCCN1C(=O)OCc1ccccc1 [Example 8, N-benzyloxycarbonyl-L-prolyl-L-prolinal diethyl acetal]	2.0 ± 0.5	0.9 ± 0.2	1.2 ± 0.3	0.7 ± 0.3	0.6 ± 0.3	–
1000	CCOC(OCC)[C@@H]1CCCN1C(=O)[C@@H]1CCC(=O)N1C(=O)CCC(=O)O [Example 16, N-succinyl-L-pyroglutamyl-L-prolinal diethyl acetal]	–	–	–	–	–	–
1000	CCOC(OCC)[C@@H]1CCCN1C(=O)CN(C)C(=O)CCC(=O)O [Example 14, N-succinyl-sarcosyl-L-prolinal diethyl acetal]	–	–	–	–	–	–

More lines, now with the values behind:

SMILES	Ki [2] [µM]	Relative step-down latency in retention trial (mean ± S.E.) ([1]; Table 2, 1 mg/kg p.o.)	Relative step-down latency in retention trial (mean ± S.E.) [1, 5]	Relative step-down latency in retention trial (mean ± S.E.) ([1]; Table 2, 25 mg/kg p.o.)	Relative step-down latency in retention trial (mean ± S.E.) ([1]; Table 2, 50 mg/kg p.o.)	Relative step-down latency in retention trial (mean ± S.E.) ([1]; Table 2, 100 mg/kg p.o.)	other results
COc1ccc(C(=O)N2CCCC2=O)cc1 [aniracetam]	–	–	–	–	–	–	Relative step-down latency in retention trial (mean ± S.E.) ([1]; Table 3, 12.5 mg/kg p.o.): 1.1 ± 0.4; Relative step-down latency in retention trial (mean ± S.E.) ([1]; Table 3, 25 mg/kg p.o.): 1.6 ± 0.6; Relative step-down latency in retention trial (mean ± S.E.) ([1]; Table 3, 50 mg/kg p.o., *p < 0.05 (Mann-Whitney)): 2.3 ± 0.6; Relative step-down latency in retention trial (mean ± S.E.) ([1]; Table 3, 100 mg/kg p.o.): 0.7 ± 0.3
O=C[C@@H]1CCCN1C(=O)[C@@H]1CCCN1C(=O)OCc1ccccc1 [ZPP, Benzyloxycarbonyl-L-prolyl-L-prolinal] (Cbz-Pro-Pro-aldehyde)	–	2.8 ± 1.3	8.5 ± 1.6	1.4 ± 0.8	0.5 ± 0.1	1.3 ± 0.8	anti-amnestic action [3]: anti-amnestic action; inhibitory activity to proline endopeptidase [4]: inhibitory activity to proline endopeptidase
